Holding throughout (assay type): toxicity, cell-based
Data set [1] can be described thus: MMV: MTT Cytotoxicity Assay Day 3 pi, U87-CD4-CXCR4 cells, % cell death @ 5mM compound. As to conditions: human, u87-cd4-cxcr4, 5000 µM.
Data set [2] is described as follows: MMV: MTT Cytotoxicity Assay Day 7 pi of Assay #6 (compound washed out Day 1 pi), U87-CD4-CCR5 cells, % cell death @ 5mM compound. The following applies: human, u87-cd4-ccr5, 5000 µM.
Data set [3] can be described thus: MMV: MTT Cytotoxicity Assay Day 7 pi of Assay #7 (compound washed out Day 1 pi), U87-CD4-CXCR4 cells, % cell death @ 5mM compound. The following applies: human, u87-cd4-cxcr4, 5000 µM.
A short description of data set [4]: MMV: MTT Cytotoxicity Assay Day 7 pi of Assay #11 (NO washout), U87-CD4-CXCR4 cells, % cell death @ 5mM compound. The following applies: human, u87-cd4-cxcr4, 5000 µM.
Data set [5] can be described thus: MMV: MTT Cytotoxicity Assay Day 3 pi, U87-CD4-CCR5 cells, % cell death @ 5mM compound. The following applies: human, u87-cd4-ccr5, 5000 µM.
Data set [6] can be described thus: MMV: MTT Cytotoxicity Assay Day 7 pi of Assay #10 (NO washout), U87-CD4-CCR5 cells, % cell death @ 5mM compound. As to conditions: human, u87-cd4-ccr5, 5000 µM.

Take `Cl.OC(CNCc1ccccc1)Cn1c2ccccc2c2ccccc21` (centres undefined): the “% Cell Death” value in data set [1] is 18; in data set [2], 10; in data set [3], -9; in data set [4] it was -23; in data set [5], 19; in data set [6], 11.
On to `CN(C)c1ccc(C(O)(c2ccc(N(C)C)cc2)c2ccc(N(C)C)cc2)cc1` [METHYLROSANILINE], for which the “% Cell Death” value in data set [1] was 98; in data set [2], 3; in data set [3], -2; in data set [4] it was 71; in data set [5], 2; in data set [6], 23.
For the molecule `CCOc1cc2c(cc1OCC)C(c1cc(Cl)ccc1O)NCC2` (centres undefined), the “% Cell Death” value in data set [1] is on record as 42; in data set [2] it was -26; in data set [3] it was 3; in data set [4] it was 21; in data set [5] it was 20; in data set [6] it was 17.
As for `Cl.Cn1c(=O)n(C)c2cc(CNCCNc3ccnc4cc(Cl)ccc34)ccc21`, the “% Cell Death” value in data set [1] is listed as 65; in data set [2], 34; in data set [3], 31; in data set [4], 45; in data set [5], 46; in data set [6], 23.
For `COc1ccc(-c2cc3c(nn2)-c2ccccc2C3=O)cc1`, the “% Cell Death” value in data set [1] is 49; in data set [2] it was 30; in data set [3] it was 13; in data set [4], 101; in data set [5] it was 71; in data set [6], 75.
Consider `Cc1[nH]c(-c2ccc(F)cc2)cc1C(=O)NC1CCN(Cc2ccccc2)CC1`, for which the “% Cell Death” value in data set [1] was found to be 41; in data set [2], 52; in data set [3] it was 6; in data set [4], 29; in data set [5] it was 65; in data set [6], 44.
Regarding `COc1ccc(NC(=O)C2c3ccccc3C(=O)N(CC(C)C)C2c2cccs2)cc1Cl` (centres undefined), the “% Cell Death” value in data set [1] is 22; in data set [2] it was 5; in data set [3], -21; in data set [4], -10; in data set [5], 13; in data set [6] it was -2.
In the case of `N=c1c2ccccc2nnn1-c1cccc(C(F)(F)F)c1`, the “% Cell Death” value stood at 99 in data set [1]; 68 in data set [2]; 86 in data set [3]; 112 in data set [4]; 106 in data set [5]; 101 in data set [6].
As to `CCOc1ccc2nc(C)cc(Nc3ccc(Br)cc3)c2c1`, the “% Cell Death” value in data set [1] turned out to be 64; in data set [2], 26; in data set [3], 72; in data set [4], 106; in data set [5] it was 82; in data set [6] it was 108.
Consider `Oc1ccc(C(=C(Cl)Cl)c2ccc(O)cc2)cc1`, for which the “% Cell Death” value is given as 75 in data set [1]; -14 in data set [2]; 36 in data set [3]; 103 in data set [4]; 80 in data set [5]; 84 in data set [6].
For `CCOC(=O)c1cnc2ccc(Cl)cc2c1NCCCN(C)C`, the “% Cell Death” value is 26 in data set [1]; 3 in data set [2]; -14 in data set [3]; -22 in data set [4]; 17 in data set [5]; -6 in data set [6].
`COc1ccc(C)c2sc(N(Cc3cccnc3)C(=O)c3ccc(C#N)cc3)nc12`: the “% Cell Death” value in data set [1] is listed as 24; in data set [2], -1; in data set [3], -6; in data set [4], -39; in data set [5], -7; in data set [6], 13.
As for `O=C(NC1CCN(Cc2ccccc2)CC1)c1cc2nc(-c3ccc(Cl)s3)cc(C(F)(F)F)n2n1`, the “% Cell Death” value in data set [1] is given as 31; in data set [2], -12; in data set [3], -15; in data set [4], 11; in data set [5], -2; in data set [6], 46.
`COc1cc2c3cc1Oc1c(OC)c(OC)cc4c1C(Cc1ccc(O)c(c1)Oc1ccc(cc1)CC3N(C)CC2)N(C)CC4.Cl` (centres undefined): the “% Cell Death” value is 36 in data set [1]; 3 in data set [2]; 32 in data set [3]; 83 in data set [4]; -12 in data set [5]; 43 in data set [6].
Regarding `CCCCc1c(C)nc2c(OC)cccc2c1O`, the “% Cell Death” value is 52 in data set [1]; 43 in data set [2]; 17 in data set [3]; 46 in data set [4]; 0 in data set [5]; 74 in data set [6].
With `CCOC(=O)c1cn(CC)c2cc(N(C)CCc3ccc(OC)c(OC)c3)c(F)cc2c1=O`, the “% Cell Death” value in data set [1] is -10; in data set [2], -4; in data set [3], -40; in data set [4], -17; in data set [5], 22; in data set [6], 27.
As for `COc1cc(SC)ccc1C(=O)N1CCCC(C)C1` (centres undefined), the “% Cell Death” value is 28 in data set [1]; 12 in data set [2]; -26 in data set [3]; -41 in data set [4]; 9 in data set [5]; -5 in data set [6].
On to `COc1ccc2c(c1OC)C(=O)N1c3ccccc3N=C(c3ccc(C)cc3)CC21` (centres undefined), for which the “% Cell Death” value in data set [1] is on record as 72; in data set [2] it was 17; in data set [3], 1; in data set [4] it was 102; in data set [5], 87; in data set [6], 78.
For `COCCN(C(=O)Cc1cccs1)C(C(=O)NCc1ccc(OC)cc1)c1ccc(C(C)C)cc1` (centres undefined), the “% Cell Death” value in data set [1] is 12; in data set [2], 16; in data set [3], -10; in data set [4], 68; in data set [5], 13; in data set [6], 140.
In the case of `COc1cc(C(=O)ON=C(N)Cc2cccc3ccccc23)cc(OC)c1OC`, the “% Cell Death” value in data set [1] is on record as 32; in data set [2], -13; in data set [3] it was 4; in data set [4] it was -15; in data set [5], 14; in data set [6], 100.
In the case of `CCCCNCC(O)(c1ccc(Cl)cc1)c1ccc(Cl)cc1`, the “% Cell Death” value is on record as 29 in data set [1]; 23 in data set [2]; -18 in data set [3]; 27 in data set [4]; 16 in data set [5]; 11 in data set [6].
On to `CCOC(=O)c1cnc2c(C)cc(C)cc2c1Nc1ccc(OC)c(OC)c1`, for which the “% Cell Death” value is 22 in data set [1]; 19 in data set [2]; 7 in data set [3]; -7 in data set [4]; 11 in data set [5]; 8 in data set [6].
As for `Cc1ccc(-c2cc3c(SCC(=O)Nc4cc(C(F)(F)F)ccc4Cl)nccn3n2)cc1`, the “% Cell Death” value in data set [1] is on record as 35; in data set [2] it was 12; in data set [3] it was -26; in data set [4], 2; in data set [5], 18; in data set [6], 24.
As to `O=C(Nc1ccc(-c2nc3ccccc3[nH]2)cc1)c1ccc(Cl)c(Cl)c1`, the “% Cell Death” value in data set [1] is recorded as 39; in data set [2], -9; in data set [3] it was 20; in data set [4], -46; in data set [5], 38; in data set [6], 33.
Consider `CC(C)(C)c1ccc2c(c1)CN(Cc1ccc(Cl)cc1)CO2`, for which the “% Cell Death” value in data set [1] was 37; in data set [2], 66; in data set [3], 18; in data set [4] it was -36; in data set [5], 64; in data set [6] it was 23.
`O=C(Nc1ccc(F)c(Cl)c1)Nc1ccc(Cl)c(Cl)c1`: the “% Cell Death” value in data set [1] was 4; in data set [2] it was -6; in data set [3], -9; in data set [4], -12; in data set [5], -19; in data set [6] it was 22.
Regarding `Cc1ccccc1OCCSc1nc2ccc(NC(=O)c3cccs3)cc2s1`, the “% Cell Death” value in data set [1] was found to be 101; in data set [2], 103; in data set [3], 81; in data set [4], 106; in data set [5] it was 110; in data set [6], 107.
As for `COc1ccc(CN2CCCC(C(=O)c3ccc(C(F)(F)F)cc3)C2)c(O)c1` (centres undefined), the “% Cell Death” value came to 89 in data set [1]; 104 in data set [2]; 97 in data set [3]; 109 in data set [4]; 107 in data set [5]; 105 in data set [6].
In the case of `CCOc1ccccc1CNC(=O)C1c2ccccc2C(=O)N(CC(C)C)C1c1cccs1` (centres undefined), the “% Cell Death” value is reported as 12 in data set [1]; 2 in data set [2]; -26 in data set [3]; 4 in data set [4]; -26 in data set [5]; 20 in data set [6].
